The species named for test [1] is Mus musculus. Briefly: Inhibition of M-CSF/RANKL-induced ERK phosphorylation in mouse BMMC at 5 ug/ml preincubated with M-CSF for 6 mins followed by RANKL addition measured after 5 mins by Western blot method. On the technique in general: In western blotting, separated proteins are transferred to a membrane and probed.
Test [2] addresses T1, NF-kappa-B inhibitor alpha (Mus musculus) (UniProt Q9Z1E3).
T1 sequence (whole entry): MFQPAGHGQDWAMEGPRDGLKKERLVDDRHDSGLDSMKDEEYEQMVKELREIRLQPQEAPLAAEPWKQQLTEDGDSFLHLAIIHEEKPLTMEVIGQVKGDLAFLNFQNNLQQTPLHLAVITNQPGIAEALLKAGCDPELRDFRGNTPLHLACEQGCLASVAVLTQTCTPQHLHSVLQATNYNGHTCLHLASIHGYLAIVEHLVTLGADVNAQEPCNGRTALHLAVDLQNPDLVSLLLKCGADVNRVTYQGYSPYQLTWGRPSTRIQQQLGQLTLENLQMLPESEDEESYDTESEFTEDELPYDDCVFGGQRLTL
In words: Effect on IkappaBalpha phosphorylation in mouse BMMC at 5 ug/ml preincubated with M-CSF for 6 mins followed by RANKL addition measured after 5 to 30 mins by Western blot method.

Test [3] concerns BMMC. In words: Inhibition of M-CSF/RANKL-induced osteoclast differentiation in mouse BMMC after 4 days by TRAP staining method. It is filed as functional, cell-based.
Test [4] is filed under the species Mus musculus. In words: Inhibition of M-CSF/RANKL-induced JNK phosphorylation in mouse BMMC at 5 ug/ml preincubated with M-CSF for 6 mins followed by RANKL addition measured after 5 mins by Western blot method.
In test [5] the target is MAP kinase p38 (Mus musculus) (UniProt P47811+O08911+Q9WUI1+Q9Z1B7). In words: Inhibition of M-CSF/RANKL-induced p38 phosphorylation in mouse BMMC at 5 ug/ml preincubated with M-CSF for 6 mins followed by RANKL addition measured after 5 mins by Western blot method.
Test [6] relates to BMMC. In words: Inhibition of M-CSF/RANKL-induced osteoclast differentiation in mouse BMMC at 5 to 10 ug/ml after 4 days by TRAP staining method. The test is classed as functional, cell-based.

Each structure is given as a SMILES string. The source made the active and inactive calls. No cut-off for these calls is given here.

Turning to `CC(=O)/C=C/c1c(CO)cc(O)c2c1O[C@]1(C2)[C@H](C)CC[C@H]2C(C)(C)[C@H](O)CC[C@@]21C`, the inhibition result (in the test filed under Mus musculus [1]; in the test listed under Mus musculus [4]; in test [5]) was “Active” each time. Further, the result in test [2] was inactive. Besides, the inhibition entry in the test on BMMC [3] was “Dose-dependent effect”.
`C[C@@H]1CC[C@H]2C(C)(C)[C@H](O)CC[C@]2(C)[C@@]12Cc1c(O)cc3c(c1O2)C(=O)OC3`: the inhibition result with BMMC [6] was “inactive”.

(Values after ChEMBL document CHEMBL4000166, “Stachybotrysin, an Osteoclast Differentiation Inhibitor from the Marine-Derived Fungus Stachybotrys sp. KCB13F013” (J Nat Prod, 2016).)
